Where two headings read alike, the source gives them in different places.
Experiments:
RPMI-8226 (Leukemia) = test: NCI-60 screen (SRB, 48 h); details: Homo sapiens
CNS cancer subpanel = test: NCI-60 screen, subpanel; details: Homo sapiens
M14 (Melanoma) = test: NCI-60 screen (SRB, 48 h); details: Homo sapiens
[1] = system: NCI-H226 (NSC lung cancer); test: NCI-60 screen (SRB, 48 h)
HOP-92 (NSC lung cancer) = test: NCI-60 screen (SRB, 48 h); details: Homo sapiens
UACC-257 (Melanoma) = test: NCI-60 screen (SRB, 48 h); details: Homo sapiens
OVCAR-5 (Ovarian cancer) = test: NCI-60 screen (SRB, 48 h); details: Homo sapiens
U251 (CNS cancer) = test: NCI-60 screen (SRB, 48 h)
K-562 (Leukemia) = test: NCI-60 screen (SRB, 48 h); details: Homo sapiens
OVCAR-8 (Ovarian cancer) = test: NCI-60 screen (SRB, 48 h); details: Homo sapiens
MALME-3M (Melanoma) = test: NCI-60 screen (SRB, 48 h); details: Homo sapiens
LOX IMVI (Melanoma) = test: NCI-60 screen (SRB, 48 h); format: cell-based; details: Homo sapiens
SK-OV-3 (Ovarian cancer) = test: NCI-60 screen (SRB, 48 h); details: Homo sapiens
SK-MEL-28 (Melanoma) = test: NCI-60 screen (SRB, 48 h)
[2] = system: MDA-MB-31/ATCC (Breast cancer); test: NCI-60 screen (SRB, 48 h); details: Homo sapiens
[3] = system: panel of approximately 60 cancer cell lines; test: NCI-60 screen (SRB, 48 h), full panel
SF-539 (CNS cancer) = test: NCI-60 screen (SRB, 48 h); details: Homo sapiens
SN12C (Renal cancer) = test: NCI-60 screen (SRB, 48 h); details: Homo sapiens
[4] = system: NCI-H23 (NSC lung cancer); test: NCI-60 screen (SRB, 48 h); details: Homo sapiens
OVCAR-4 (Ovarian cancer) = test: NCI-60 screen (SRB, 48 h); format: cell-based; details: Homo sapiens
SK-MEL-2 (Melanoma) = test: NCI-60 screen (SRB, 48 h); details: Homo sapiens
HS 578T (Breast cancer) = test: NCI-60 screen (SRB, 48 h); details: Homo sapiens
Leukemia subpanel = test: cells; details: Homo sapiens
HCT-15 (Colon cancer) = test: NCI-60 screen (SRB, 48 h); details: Homo sapiens
MDA-MB-435 (Melanoma) = test: NCI-60 screen (SRB, 48 h); format: cell-based; details: Homo sapiens
[5] = system: NCI/ADR-RES (Ovarian cancer); test: NCI-60 screen (SRB, 48 h); details: Homo sapiens
HCC-2998 (Colon cancer) = test: NCI-60 screen (SRB, 48 h); details: Homo sapiens

Compound `C[C@H]1[C@H](C)CC[C@]2(CO)CC[C@]3(C)C(=CC[C@@H]4[C@@]5(C)CCCNC(C)(C)[C@@H]5CC[C@]43C)[C@H]12` [Compound 4, azepanouvaol] has a GI50 (RPMI-8226 (Leukemia); RPMI-8226) of 1.85 µM, an IC (TGI) (RPMI-8226 (Leukemia); RPMI-8226, 48 h, read-out: TGI) of 4.15 µM and a CC50 (RPMI-8226 (Leukemia); RPMI-8226, read-out: LC50) of 9.27 µM. The IC (TGI) (CNS cancer subpanel; 48 h, read-out: TGI MG_MID) was 3.2 µM, the GI50 (CNS cancer subpanel; read-out: GI50 MG_MID) was 1.69 µM and the CC50 (CNS cancer subpanel; read-out: LC50 MG_MID) was 6.06 µM. It also gave a GI50 (M14 (Melanoma); M14) of 1.61 µM, an IC (TGI) (M14 (Melanoma); M14, 48 h, read-out: TGI) of 3.12 µM and a CC50 (M14 (Melanoma); M14, read-out: LC50) of 6.04 µM. The GI50 ([1]; Homo sapiens, NCI-H226) was 2.07 µM, the IC (TGI) ([1]; Homo sapiens, NCI-H226, 48 h, read-out: TGI) was 4.25 µM and the “Growth % of the Most Sensitive Cell Lines” value (from here on “Growth %”) ([1]; NCI-H226, 1 dose 10 µM) was −99.04%. The GI50 (HOP-92 (NSC lung cancer); HOP-92) was 1.52 µM, the IC (TGI) (HOP-92 (NSC lung cancer); HOP-92, 48 h, read-out: TGI) was 3.19 µM and the CC50 (HOP-92 (NSC lung cancer); HOP-92, read-out: LC50) was 6.67 µM. The GI50 (UACC-257 (Melanoma); UACC-257) was 1.95 µM, the IC (TGI) (UACC-257 (Melanoma); UACC-257, 48 h, read-out: TGI) was 3.7 µM and the CC50 (UACC-257 (Melanoma); UACC-257, read-out: LC50) was 7.01 µM. It also gave a GI50 (OVCAR-5 (Ovarian cancer); OVCAR-5) of 1.69 µM, an IC (TGI) (OVCAR-5 (Ovarian cancer); OVCAR-5, 48 h, read-out: TGI) of 3.18 µM and a CC50 (OVCAR-5 (Ovarian cancer); OVCAR-5, read-out: LC50) of 5.99 µM. It also gave a GI50 (U251 (CNS cancer); Homo sapiens, U-251) of 1.67 µM, an IC (TGI) (U251 (CNS cancer); Homo sapiens, U-251, 48 h, read-out: TGI) of 3.15 µM and a CC50 (U251 (CNS cancer); Homo sapiens, U-251, read-out: LC50) of 5.94 µM. The “Growth %” value (U251 (CNS cancer); U251, 1 dose 10 µM) was −83.30%, the GI50 (K-562 (Leukemia); K562) was 0.47 µM and the IC (TGI) (K-562 (Leukemia); K562, 48 h, read-out: TGI) was 2.02 µM. It also gave a CC50 (K-562 (Leukemia); K562, read-out: LC50) of 6.68 µM, a GI50 (OVCAR-8 (Ovarian cancer); OVCAR-8) of 1.96 µM and an IC (TGI) (OVCAR-8 (Ovarian cancer); OVCAR-8, 48 h, read-out: TGI) of 3.61 µM. It also gave a CC50 (OVCAR-8 (Ovarian cancer); OVCAR-8, read-out: LC50) of 6.67 µM, a GI50 (MALME-3M (Melanoma)) of 1.68 µM and an IC (TGI) (MALME-3M (Melanoma); 48 h, read-out: TGI) of 3.44 µM. For the same compound, the CC50 (MALME-3M (Melanoma); read-out: LC50) was 7.08 µM, the GI50 (LOX IMVI (Melanoma)) was 1.59 µM and the IC (TGI) (LOX IMVI (Melanoma); 48 h) was 3.05 µM. The activity at 10 µM (LOX IMVI (Melanoma); 48 h, 1 dose 10 µM, read-out: Growth % of the Most Sensitive Cell Lines) was -94.9%, the CC50 (LOX IMVI (Melanoma); read-out: LC50 (the source's name)) was 5.84 µM and the GI50 (SK-OV-3 (Ovarian cancer); SK-OV-3) was 2.54 µM. For the same compound, the IC (TGI) (SK-OV-3 (Ovarian cancer); SK-OV-3, 48 h, read-out: TGI) was 3.97 µM, the CC50 (SK-OV-3 (Ovarian cancer); SK-OV-3, read-out: LC50) was 35.2 µM and the GI50 (SK-MEL-28 (Melanoma); Homo sapiens, SK-MEL-28) was 1.75 µM. The IC (TGI) (SK-MEL-28 (Melanoma); Homo sapiens, SK-MEL-28, 48 h, read-out: TGI) was 3.3 µM, the CC50 (SK-MEL-28 (Melanoma); Homo sapiens, SK-MEL-28, read-out: LC50) was 6.22 µM and the “Growth %” value (SK-MEL-28 (Melanoma); SK-MEL-28, 1 dose 10 µM) was −84.86%. For the same compound, the GI50 [2] was 1.88 µM, the IC (TGI) ([2]; 48 h, read-out: TGI) was 3.48 µM and the CC50 ([2]; read-out: LC50) was 6.43 µM. The “Positive Cytostatic Effect (cell lines with percent growth 0 to 50 / total)” value ([3]; 1 dose 10 µM) was 18/59, the “Positive Cytotoxic Effect (cell lines with percent growth < 0 / total)” value ([3]; 1 dose 10 µM) was 40/59 and the “number of cancer cell lines the compound was active against” value ([3]; 1 dose 10 µM) was 57 cell lines. The activity at 10 µM ([3]; Homo sapiens, 48 h, read-out: Mean Growth, %) was -31.9%, the activity at 10 µM ([3]; Homo sapiens, 48 h, read-out: Range of Growth, %) was -99 to 23% and the IC (TGI) ([3]; Homo sapiens, 48 h, read-out: TGI MG_MID60, average over all cell lines) was 3.31 µM. For the same compound, the GI50 ([3]; Homo sapiens, read-out: GI50 MG_MID60) was 1.65 µM, the GI50 ([3]; Homo sapiens, read-out: GI50 against all human tumor cell lines) was < 3 µM and the GI50 ([3]; Homo sapiens, read-out: GI50 against the most sensitive cell lines) was 0.2 to 0.94 µM. It also gave a CC50 ([3]; Homo sapiens, read-out: LC50 MG_MID60, average over all cell lines) of 7.64 µM, a GI50 (SF-539 (CNS cancer); SF-539) of 1.69 µM and an IC (TGI) (SF-539 (CNS cancer); SF-539, 48 h, read-out: TGI) of 3.16 µM. The CC50 (SF-539 (CNS cancer); SF-539, read-out: LC50) was 5.9 µM, the GI50 (SN12C (Renal cancer)) was 1.64 µM and the IC (TGI) (SN12C (Renal cancer); 48 h, read-out: TGI) was 3.11 µM. For the same compound, the CC50 (SN12C (Renal cancer); read-out: LC50) was 5.87 µM, the GI50 ([4]; NCI-H23) was 1.65 µM and the IC (TGI) ([4]; NCI-H23, 48 h, read-out: TGI) was 3.26 µM. For the same compound, the CC50 ([4]; NCI-H23, read-out: LC50) was 6.47 µM, the IC (TGI) (OVCAR-4 (Ovarian cancer); OVCAR-4, 48 h) was 3.79 µM and the GI50 (OVCAR-4 (Ovarian cancer); OVCAR-4, read-out: GI50) was 1.72 µM. For the same compound, the GI50 (SK-MEL-2 (Melanoma); SK-MEL-2) was 1.9 µM, the IC (TGI) (SK-MEL-2 (Melanoma); SK-MEL-2, 48 h, read-out: TGI) was 3.63 µM and the CC50 (SK-MEL-2 (Melanoma); SK-MEL-2, read-out: LC50) was 6.91 µM. The GI50 (HS 578T (Breast cancer)) was 2.05 µM, the IC (TGI) (HS 578T (Breast cancer); 48 h, read-out: TGI) was 4.86 µM and the CC50 (HS 578T (Breast cancer); read-out: LC50) was 32.6 µM. It also gave an IC (TGI) (Leukemia subpanel; 48 h, read-out: TGI MG_MID) of 3.28 µM, a GI50 (Leukemia subpanel; read-out: GI50 MG_MID) of 1.32 µM and a CC50 (Leukemia subpanel; read-out: LC50 MG_MID) of 8.02 µM. For the same compound, the GI50 (HCT-15 (Colon cancer); HCT-15) was 1.39 µM, the IC (TGI) (HCT-15 (Colon cancer); HCT-15, 48 h, read-out: TGI) was 2.75 µM and the CC50 (HCT-15 (Colon cancer); HCT-15, read-out: LC50) was 5.52 µM. For the same compound, the GI50 (MDA-MB-435 (Melanoma); MDA-MB-435) was 1.59 µM, the IC (TGI) (MDA-MB-435 (Melanoma); MDA-MB-435, 48 h, read-out: TGI) was 3.21 µM and the CC50 (MDA-MB-435 (Melanoma); MDA-MB-435, read-out: LC50 (the source's name)) was 6.49 µM. The GI50 [5] was 1.76 µM, the IC (TGI) ([5]; 48 h, read-out: TGI) was 3.47 µM and the CC50 ([5]; read-out: LC50) was 6.84 µM. The GI50 (HCC-2998 (Colon cancer); HCC 2998) was 1.75 µM, the IC (TGI) (HCC-2998 (Colon cancer); HCC 2998, 48 h, read-out: TGI) was 3.46 µM and the CC50 (HCC-2998 (Colon cancer); HCC 2998, read-out: LC50) was 6.85 µM.

From paper PMC7914897, “Cytotoxic Potential of a-Azepano- and 3-Amino-3,4-SeCo-Triterpenoids” (International Journal of Molecular Sciences, 2021)
